Results: patent US5508275A, “Lipid-selective antioxidants and their preparation and use” (Hoechst Aktiengesellschaft, priority 1990, dated 1996)

Assays:
[1] = Solubility in water and olive oil (Method III)
Method: a) Preparation of olive oil or aqueous solutions. 1 ml of olive oil or I ml of double-distilled water (or dilute NaOH pH=7.6) was added to 1 mg or 10 mg or 50 mg of the respective compound at 37° C. and it was checked whether a clear solution was obtained. The optionally centrifuged and decanted olive oil solutions were heated for 5 minutes using a Bunsen burner and the degree of browning of the olive oil was determined. […] Samples having poor protective action are given a (*) in the table (see below).

[2] = Inhibition of the oxidation of lipids: SA-PC in cyclohexane (Method IV); format: biochemical; conditions: 37° C., absorption at 234 nm
Method: Oxidation of 1-stearoyl-2-arachidonoylphosphatidylcholine (SA-PC) in cyclohexane (37° C.). 100 mcl of a SA-PC solution (10 mg/ml of CHCl3) were evaporated by blowing (argon) and the residue was taken up in 1 ml of cyclohexane. After adding an amount of antioxidant which would also dissolve in olive oil (cf. Table 1), the absorption was measured at 234 nm (Perkin Elmer 5528 spektrophotometer, Uberlingan, FRG) and the solvent was then evaporated by blowing with air. After a fur%her 24 hours standing in an open vessel, the residue was again dissolved in i ml of cyclohexane and the absorption at 234 nm was measured as a measurement of the oxidized SA-PC.

[3] = test system: thrombus formation in rats; test: Laser-induced thrombosis in rats in vivo (Method VIII); set-up: species or system rat; conditions: 30 mg/kg oral, laser induction 60 min after administration
Method: The experimental procedure was carried out in every detail as described in U.S. Pat. No. 4,694,024. Laser induction took place 60 min after oral administration of the antioxidants.

[4] = Long-term administration in the hyperlipidemic infarct-sensitive rat: total serum cholesterol (Method XI); format: in vivo; conditions: 50 mg/kg oral, after 9 days; control 286
Method: While no test substance was administered to the control group I (cf. the following Table), the standard diet in the pharmaceutical experiments II-IV additionally contained 50 mg/kg of body weight of the test substances indicated in the table below. After 9 days, the rats were examined, as described above, in the laser-induced thrombosis test, and the total cholesterol content of the serum was determined. […] Moreover, the substances according to the invention exerted an advantageous hypolipidemic effect.

[5] = test system: proneness to thrombosis of hyperlipidemic infarct-sensitive rats; test: Long-term administration in the hyperlipidemic infarct-sensitive rat: laser-induced thrombosis test (Method XI); format: in vivo; conditions: 50 mg/kg oral, after 9 days
Method: Male infarct-sensitive rats about 200 g in weight (Mollegaard, Ejby, Denmark) were treated orally once daily with 1 ml/100 g of body weight of a standard diet (100 g of cholic acid, 100 g of cholesterol, 30 g of propylthiouracil to 1 l of sesame oil). While no test substance was administered to the control group I (cf. the following Table), the standard diet in the pharmaceutical experiments II-IV additionally contained 50 mg/kg of body weight of the test substances indicated in the table below. After 9 days, the rats were examined, as described above, in the laser-induced thrombosis test, and the total cholesterol content of the serum was determined.

[6] = Use as an additive in frying fat: color change of butter (Method II); conditions: 1% (weight/weight) in butter
Method: Use as an additive in frying fat: Samples of commercially available German non-blended butter were melted and in each case 1% (weight/weight) of BHT (=butylated hydroxytoluene) or 2,6-di-tert.-butyl-4-(7-nonynoyl)-phenol [=compound according to Example 17] or ethyl 2-(3,5-di-tert.-butyl-4-hydroxybenzyl)-3-oxo-docosanoate [=compound according to Example 18] or N-octadecyl-DL-α-lipoic acid amide [=compound according to Example 52] was added and the mixture was used in the customary manner as frying fat. […] The better protective action of the […] probably comes about as a result of their lipophilic side chains and, therefore, improved lipophilic interaction. The advantageous action of N-octadecyl-DL-α-lipoic acid amide is particularly surprising, although this preparation has no recognizable antioxidative component.

[7] = Antioxidative radical scavenger properties by the diphenylpicrylhydrazine (DPPH) method (Method I); format: biochemical; conditions: absolute ethanol
Method: Antioxidative radical scavenger properties by the diphenylpicrylhydrazine (DPPH) method: The determination was carried out spectrophotometrically (PMQ4 from Zeiss, Oberkochen, FRG) by the method described in Smith and Reeves, Biochemical Pharmacology 36 (1987) pp. 1457-1460. The measurement is the rate constant determined graphically (concentration versus conversion rate) in a known manner, measured in absolute ethanol.

[8] = olive oil, organic solvent or mixture

| Compound | solubility [1, 8] | solubility ([1]; water) | Solubility, Olive oil ([1]; olive oil) | Solubility, Water ([1]; water) | prevention of the oxidation of SA-PC, reduced dithiol vs. corresponding oxidized dithio compounds [2] | Reduction of thrombus formation [3] | Total cholesterol [4] | Reduction in proneness to thrombosis vs. control (%) [5] | color change of frying fat after the frying procedure [6] | Reaction with DPPH (rate constant) [7] |
| --- | --- | --- | --- | --- | --- | --- | --- | --- | --- | --- |
| CCCCCCCCCCCCCCCCCCNC(=O)CCCCC(S)CCS (racemic) [Example 49] | > 10000 µg/mL | < 100 µg/mL | – | – | possible to prevent the oxidation of SA-PC Just as effectively | 20% | 259 mg/dL | 34% | – | – |
| O=C1O[C@H]([C@@H](O)CO)C(O)=C1O [Ascorbic acid] | – | – | – | – | – | – | – | – | – | 2.99 |
| Cc1c(C)c2c(c(C)c1O)CCC(C)(C(=O)NCCCNC(=O)CC[C@@H](C)[C@H]1CC[C@H]3[C@@H]4CC[C@@H]5C[C@H](O)CC[C@]5(C)[C@H]4C[C@H](O)[C@]13C)O2 (stereo partly shown) [Example 2] | > 10000 µg/mL | > 100 µg/mL | – | – | – | 14% | 270 mg/dL | 50% | – | – |

Continued, in another order:

| solubility [1, 8] | solubility ([1]; water) | Solubility, Olive oil ([1]; olive oil) | Solubility, Water ([1]; water) | Compound | prevention of the oxidation of SA-PC, reduced dithiol vs. corresponding oxidized dithio compounds [2] | Reduction of thrombus formation [3] | Total cholesterol [4] | Reduction in proneness to thrombosis vs. control (%) [5] | color change of frying fat after the frying procedure [6] | Reaction with DPPH (rate constant) [7] |
| --- | --- | --- | --- | --- | --- | --- | --- | --- | --- | --- |
| > 10000 µg/mL | < 100 µg/mL | – | – | CCCCCCCCCCCCCCCCCCNC(=O)CCCCC1CCSS1 (racemic) [Example 52, N-octadecyl-DL-α-lipoic acid amide] | possible to prevent the oxidation of SA-PC Just as effectively | 14% | – | – | substantially lower color change | – |
| > 50000 µg/mL | < 100 µg/mL | – | – | CCCCCCCCCCCCCCCCCCOC(=O)CCCCC(S)CCS (stereo not shown) [Example 50] | possible to prevent the oxidation of SA-PC Just as effectively | – | – | – | – | – |
| > 50000 µg/mL | < 100 µg/mL | – | – | CCCCCCCCCCCCCCCCCCOC(=O)CCCCC1CCSS1 (stereo not shown) [Example 51] | possible to prevent the oxidation of SA-PC Just as effectively | – | – | – | – | – |
| – | – | > 10000 µg/mL | < 100 µg/mL | Vitamin E [reference compound] | – | 5% | 278 mg/dL | 26% | – | – |
